The target in experiment [1] is T1, N-formylated peptide receptor on U937 cells (Homo sapiens, UniProt P21462).
T1 sequence (P21462 1-350): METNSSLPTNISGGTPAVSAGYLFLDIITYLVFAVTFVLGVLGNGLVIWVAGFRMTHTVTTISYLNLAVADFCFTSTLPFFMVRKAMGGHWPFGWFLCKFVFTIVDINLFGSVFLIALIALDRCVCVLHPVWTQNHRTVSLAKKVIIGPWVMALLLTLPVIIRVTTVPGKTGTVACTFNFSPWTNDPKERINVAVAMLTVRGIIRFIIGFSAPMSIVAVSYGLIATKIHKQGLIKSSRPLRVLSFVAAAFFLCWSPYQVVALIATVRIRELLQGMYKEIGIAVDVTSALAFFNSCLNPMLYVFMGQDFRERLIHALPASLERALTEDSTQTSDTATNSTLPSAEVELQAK
The experiment is described as follows: fMet-Leu-[3H]Phe-binding assay on U937 cells. The note with it: U937 cells incubated with cytochalasin B.

In experiment [2] the test system is human peripheral blood monocytes. The settings on record: ref M. C. Pike and R. Snyderman. Unpublished observation; cited from earlier work.
Experiment [3] has as its system U937 cells. In words: Chemotaxis of U937 cells, modified Boyden chambers. The format is cell-based, human. The note with it: U937 cells cultured 48 h with lymphokines; Fig. 4.

On to `C=C1[C@@H](C)[C@H]2[C@H](Cc3ccccc3)NC(=O)[C@]23OC(=O)/C=C/[C@H](O)CCC[C@@H](C)C/C=C/[C@H]3[C@@H]1O` [cytochalasin B], for which, in experiment [1], the “effect on amount of fMet-Leu-[3H]Phe bound” value is recorded as “did not affect”. Take “N-formyl-norleucyl-leucyl-phenylalanine [fNle-Leu-Phe]”: the “potency for human monocyte chemotaxis relative to fMet-Leu-Phe” value in experiment [2] is given as “less than that of fMet-Leu-Phe”. Besides, the relative chemotactic potency entry in experiment [3] was “approximately equipotent”. With “fMet-Met-Met [N-formyl-methionyl-methionyl-methionine]”, the “potency for human monocyte chemotaxis relative to fMet-Leu-Phe” value in experiment [2] is “less than that of fMet-Leu-Phe”. In experiment [3], the relative chemotactic potency entry was “approximately equipotent”.
